Test results: patent US20260249027A1, “METERED DOSE INHALERS AND HIGH-DOSE SUSPENSIONS” (Kindeva Drug Delivery L.P., priority 2023, published 2026)

Tests used:
Assay type in all cases: physicochemical
[1] = Through life dose consistency of nintedanib (free base) pMDI suspensions (USP <601>, apparatus A)
Experimental: (§1) In the following examples, dose consistency was determined by in vitro measurement of single actuation dose content at start, middle and end of pMDI unit life in line with U.S. Pharmacopeia (USP)<601>, using a flow rate of 28.3 L/min and apparatus A. Aerodynamic particle size distribution of the pMDI suspension aerosols was measured at start of unit life in line with U.S. Pharmacopeia (USP)<601> using a Next Generation impactor without pre-separator (apparatus 6) and a flow rate of 30 L/min.
(§2) Suspensions of micronized nintedanib (free base) in HFA-152a or HFO-1234ze(E) were prepared. A first set of suspensions included no ethanol. A second set of suspensions included 2% ethanol by weight. Each suspension included an amount of nintedanib (free base) to provide a nominal delivered dose (ex-valve) of 0.5 mg/actuation (7.94 mg/mL) or 1.0 mg/actuation (15.87 mg/mL). Two further suspensions including no ethanol were prepared which included an amount of nintedanib (free base) to provide a nominal delivered dose (ex-valve) of 2.0 mg/actuation (20.0 mg/mL).
(§3) In total, ten suspension pMDI formulations were prepared in triplicate with sufficient fill weight to provide 60 actuations. The pMDI formulations containing 0.5 mg/actuation (7.94 mg/mL) and 1.0 mg/actuation (15.87 mg/mL) of nintedanib (free base) were filled into Kindeva FEP coated canisters, crimped with a Kindeva 63-μL valve. The pMDI formulations containing 2.0 mg/actuation (20.0 mg/mL) of nintedanib (free base) were filled into Kindeva FEP coated canisters, crimped with a Kindeva 100-μL valve. Each pMDI unit was sonicated for at least 10 minutes to disperse the suspended drug and tested with a Kindeva actuator having an exit orifice diameter (EOD) of 0.4 mm.
The through-life (TL) dose consistency of each pMDI unit was determined by measuring the mean ex-actuator delivered dose in micrograms of nintedanib (free base) (N=3) at the start of life (SoL), middle of life (MOL) and end of life (EoL) of the unit.

[2] = Aerodynamic particle size measurement of nintedanib (free base) pMDI suspensions (Next Generation impactor)
Text: In general, aerosols with mass median aerodynamic diameters (MMAD) of at least 1 μm but less than 5 μm in size are suitable for effective deep lung deposition for therapeutic effect. Herein, fine particle fraction (FPF) is defined as the percentage of the ex-actuator delivered API having a MMAD of less than 5 μm when tested in vitro. Herein, “ex-actuator” delivered dose is used to describe the amount of API delivered past the actuator of a pMDI. Therefore, an aerosol with a high FPF is typically suitable for deep lung deposition.
as §1, §2
as §3, with “mm. The mass median aerodynamic diameter (MMAD) and fine particle fraction (FPF) of each pMDI unit were measured by Next Generation cascade impaction (N=3) for each pMDI suspension.” for “mm.”

[3] = Additional through life dosing content uniformity of nintedanib suspension in HFO-1234ze(E), coated 63-microliter valve; settings: nominal 1 mg/actuation (15.9 mg/mL), HFO-1234ze(E) without ethanol
Experimental: as §1
(§4) A suspension of nintedanib was prepared in HFO-1234ze(E). The concentration of nintedanib (15.9 mg/mL) was selected to provide a nominal actuation dose of 1 mg/actuation from a 63-microliter valve. The bottle emptier, tank, spring, and ferrule components of the valves were coated with a fluoropolymer coating according to the general process described in Example 2 of U.S. Patent Application Publication 2017/0152396 A1 (Jinks et al., hereby incorporated by reference). The formulation was mixed with a high shear mixer and cold filled into 16 mL FEP-coated canisters.
(§5) Average fine particle mass (<5 μm) was 434 μg/actuation.

[4] = Fine particle mass of nintedanib suspension in HFO-1234ze(E), coated 63-microliter valve; settings: nominal 1 mg/actuation (15.9 mg/mL), HFO-1234ze(E) without ethanol
Experimental: as §1, §4, §5

[5] = nominal ex-valve 0.5 mg/act, HFA152a/2% EtOH (w/w), 63-μL valve
[6] = nominal ex-valve 0.5 mg/act, HFA152a, 63-μL valve
[7] = nominal ex-valve 0.5 mg/act, HFO1234ze(E)/2% EtOH (w/w), 63-μL valve
[8] = nominal ex-valve 0.5 mg/act, HFO1234ze(E), 63-μL valve
[9] = nominal ex-valve 1.0 mg/act, HFA152a/2% EtOH (w/w), 63-μL valve
[10] = nominal ex-valve 1.0 mg/act, HFA152a, 63-μL valve
[11] = nominal ex-valve 1.0 mg/act, HFO1234ze(E)/2% EtOH (w/w), 63-μL valve
[12] = nominal ex-valve 1.0 mg/act, HFO1234ze(E), 63-μL valve
[13] = nominal ex-valve 2.0 mg/act, HFA152a, 100-μL valve
[14] = nominal ex-valve 2.0 mg/act, HFO1234ze(E), 100-μL valve
[15] = nominal ex-valve 0.5 mg/act, HFA-152a/2% EtOH (w/w), 63-μL valve
[16] = nominal ex-valve 0.5 mg/act, HFA-152a, 63-μL valve
[17] = nominal ex-valve 0.5 mg/act, HFO-1234ze(E)/2% EtOH (w/w), 63-μL valve
[18] = nominal ex-valve 0.5 mg/act, HFO-1234ze(E), 63-μL valve
[19] = nominal ex-valve 1.0 mg/act, HFA-152a/2% EtOH (w/w), 63-μL valve
[20] = nominal ex-valve 1.0 mg/act, HFA-152a, 63-μL valve
[21] = nominal ex-valve 1.0 mg/act, HFO-1234ze(E)/2% EtOH (w/w), 63-μL valve
[22] = nominal ex-valve 1.0 mg/act, HFO-1234ze(E), 63-μL valve
[23] = nominal ex-valve 2.0 mg/act, HFA-152a, 100-μL valve
[24] = nominal ex-valve 2.0 mg/act, HFO-1234ze(E), 100-μL valve

## COC(=O)c1ccc2c(c1)NC(=O)/C2=C(\Nc1ccc(N(C)C(=O)CN2CCN(C)CC2)cc1)c1ccccc1 [nintedanib (free base), nintedanib]
[1]; 2% ethanol by weight, HFA-152a or HFO-1234ze(E)
  effect of addition of ethanol on through unit life ex-actuator delivered dose consistency: did not always substantially improve
[1]; HFA-152a or HFO-1234ze(E) with and without 2% ethanol by weight
  through unit life ex-actuator delivered dose consistency: relatively consistent
[1]; [5]
  EoL mean delivered dose: 383.1 μg/act
  MoL mean delivered dose: 364.6 μg/act
  SoL mean delivered dose: 452.4 μg/act
  TL mean delivered dose: 400.1 μg/act
[1]; [6]
  EoL mean delivered dose: 335.9 μg/act
  MoL mean delivered dose: 360.0 μg/act
  SoL mean delivered dose: 468.9 μg/act
  TL mean delivered dose: 388.3 μg/act
[1]; [7]
  EoL mean delivered dose: 378.0 μg/act
  MoL mean delivered dose: 385.9 μg/act
  SoL mean delivered dose: 431.1 μg/act
  TL mean delivered dose: 398.3 μg/act
[1]; [8]
  EoL mean delivered dose: 380.5 μg/act
  MoL mean delivered dose: 372.8 μg/act
  SoL mean delivered dose: 401.8 μg/act
  TL mean delivered dose: 385.0 μg/act
[1]; [9]
  EoL mean delivered dose: 818.8 μg/act
  MoL mean delivered dose: 773.1 μg/act
  SoL mean delivered dose: 940.6 μg/act
  TL mean delivered dose: 844.2 μg/act
[1]; [10]
  EoL mean delivered dose: 890.2 μg/act
  MoL mean delivered dose: 759.1 μg/act
  SoL mean delivered dose: 1020.0 μg/act
  TL mean delivered dose: 889.8 μg/act
[1]; [11]
  EoL mean delivered dose: 818.5 μg/act
  MoL mean delivered dose: 824.9 μg/act
  SoL mean delivered dose: 926.7 μg/act
  TL mean delivered dose: 856.7 μg/act
[1]; [12]
  EoL mean delivered dose: 947.3 μg/act
  MoL mean delivered dose: 962.2 μg/act
  SoL mean delivered dose: 947.8 μg/act
  TL mean delivered dose: 952.4 μg/act
[1]; [13]
  EoL mean delivered dose: 1954.6 μg/act
  MoL mean delivered dose: 1876.0 μg/act
  SoL mean delivered dose: 2205.7 μg/act
  TL mean delivered dose: 2012.2 μg/act
[1]; [14]
  EoL mean delivered dose: 2282.4 μg/act
  MoL mean delivered dose: 1884.0 μg/act
  SoL mean delivered dose: 1561.8 μg/act
  TL mean delivered dose: 1909.4 μg/act
[2]; HFA-152a or HFO-1234ze(E), with and without ethanol, in-vitro
  MMAD values of aerosols, suitability: in an appropriate respirable range
[2]; HFA-152a or HFO-1234ze(E), all nominal doses
  FPF and MMAD without ethanol compared with corresponding suspensions with 2% ethanol by weight: consistently produced greater FPFs and smaller MMADs
[2]; [15]
  Mean FPF: 26.9%
  Mean MMAD: 3.65 μm
[2]; [16]
  Mean FPF: 33.7%
  Mean MMAD: 3.74 μm
[2]; [17]
  Mean FPF: 36.8%
  Mean MMAD: 3.50 μm
[2]; [18]
  Mean FPF: 60.0%
  Mean MMAD: 2.88 μm
[2]; [19]
  Mean FPF: 18.0%
  Mean MMAD: 4.74 μm
[2]; [20]
  Mean FPF: 23.8%
  Mean MMAD: 5.01 μm
[2]; [21]
  Mean FPF: 29.3%
  Mean MMAD: 4.20 μm
[2]; [22]
  Mean FPF: 44.4%
  Mean MMAD: 3.66 μm
[2]; [23]
  Mean FPF: 16.7%
  Mean MMAD: 7.47 μm
[2]; [24]
  Mean FPF: 34.8%
  Mean MMAD: 4.08 μm
[2]; with or without ethanol
  FPF and MMAD in HFO-1234ze(E) compared with corresponding suspensions in HFA-152a: consistently produced greater FPFs and smaller MMADs
[3]
  Through life dosing content uniformity, trend: no trending between start, middle, and end of life
  average dose (through life dosing content uniformity): 950 μg/actuation
[4]
  Average fine particle mass (<5 μm): 434 μg/actuation
